Patent US20040214803A1, “Use of vitamin d3 analogue for the treatment of autoimmune diabetes” (priority 2001, published 2004)

How the values were obtained:
IL-12 = conditions: cited from earlier work
NOD mice = conditions: cited from earlier work
IL-12p75 = conditions: short treatment; Mattner et al. 2000; cited from earlier work
[1] = test system: vascularized heart allograft; experiment: Vascularized heart allograft survival, C57BL/6 into BALB/c recipients; type: in vivo, mouse; conditions: Dose 5 (unit not given) per os 3x/w every other day from d-1 until d+30
From the text: Fully vascularized hearts were grafted into the abdomen of recipient mice as described (Corry, R. J., H. J. Winn, and P. S. Russell. Primarily vascularized allografts of hearts in mice. The role of H-2D, H-2K, and non-H-2 antigens in rejection. Transplantation. 1973, 16:343). Graft survival was monitored by palpation and rejection was confirmed by direct graft inspection.

[2] = administered to NOD mice starting from three weeks of age

## C=C1/C(=C\C=C2/CCC[C@]3(C)[C@@H]([C@H](C)CCCC(C)(C)O)CC[C@@H]23)C[C@@H](O)C[C@@H]1O [1,25(OH)2D3, 1,25-dihydroxyvitamin D3]
IL-12
  IL-12 production: inhibits IL-12 production
NOD mice; administered to NOD mice from 8 weeks of age
  preventing progression of diabetes: ineffective
NOD mice; [2]
  incidence of insulitis: reduces the incidence of insulitis
  type 1 DM development: prevents type 1 DM development
IL-12p75
  LPS-induced serum levels of both cytokines (IL-12, IFN-γ): can be inhibited

## C=C1/C(=C\C=C2/CCC[C@@]3(C)C2CCC3[C@@H](C)CCCC(C)(C)O)C[C@@H](O)C[C@@H]1O (stereo partly shown) [MC1288]
NOD mice; treatment of 8 week-old NOD mice, combined or alone
  incidence of disease: neither treatment alone was effective

## C=C1/C(=C\C=C2/CCC[C@@]3(C)C2CCC3[C@H](C)CCCC(C)(C)O)C[C@@H](O)C[C@@H]1O (stereo partly shown) [Reference, reference compound]
[1]
  Graft survival (days) Mean: 14.33 days
